Test systems include SF-295 CNS; HL-60(TB) leukemia; HS 578T breast; HCT-15 colon; BT-549 breast; OVCAR-3 ovarian; NCI-H226 lung; EKVX NSCLC; MCF7 breast; K-562 leukemia; UACC-62 melanoma; U251 CNS; SN12C renal; NCI-H23 lung; 786-0 renal.
Holding throughout (assay): growth of human tumour cells (NCI), 48 h

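Grown in 96-well plates, cells were treated for 48 hours with each compound at five concentrations. Insufficient inhibition: endpoint recorded as highest concentration tested. TGI is the concentration that stops growth completely.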 Where only a bound is given, the exact number is not on record here.

Turning to `O=C1/C(=C/c2cccc([N+](=O)[O-])c2)Cc2ccccc21`, the TGI with SF-295 CNS, in the assay on HL-60(TB) leukemia, in the assay on HS 578T breast, in the assay with HCT-15 colon, in the assay with BT-549 breast and in the assay with OVCAR-3 ovarian was more than 100 µM in each case. The TGI in the assay on NCI-H226 lung, with EKVX NSCLC, in the assay with MCF7 breast, in the assay with K-562 leukemia, in the assay on UACC-62 melanoma and in the assay with U251 CNS was more than 100 µM each time. The TGI in the assay with SN12C renal, in the assay on NCI-H23 lung and in the assay with 786-0 renal was more than 100 µM throughout.
Turning to `Cc1ccc(C(CCO)CCO)nc1`, the TGI in the assay on SF-295 CNS, with HL-60(TB) leukemia, in the assay with HS 578T breast, in the assay on HCT-15 colon, in the assay on BT-549 breast and in the assay on OVCAR-3 ovarian was more than 100 µM in each case. For the same compound, the TGI in the assay with NCI-H226 lung, in the assay with EKVX NSCLC, with MCF7 breast, in the assay with UACC-62 melanoma, in the assay on U251 CNS and with SN12C renal was more than 100 µM throughout. For the same compound, the TGI in the assay on NCI-H23 lung and in the assay with 786-0 renal was more than 100 µM in each case.
Turning to `CC(=O)c1ccc(Nc2nc3ccccc3c3occc23)cc1`, the TGI was 41.1 µM in the assay on SF-295 CNS; 2.4 µM in the assay with HL-60(TB) leukemia; 54.1 µM in the assay with HS 578T breast; 33.8 µM in the assay with HCT-15 colon; 64.4 µM in the assay on BT-549 breast; 71.2 µM in the assay with OVCAR-3 ovarian. The TGI in the assay on NCI-H226 lung is 98 µM; in the assay on EKVX NSCLC it was more than 100 µM; in the assay with MCF7 breast it was 56.6 µM; in the assay with UACC-62 melanoma it was 41.3 µM; with U251 CNS, more than 100 µM; in the assay with SN12C renal, more than 100 µM. Moreover, the TGI in the assay with NCI-H23 lung came out at 46.6 µM; with 786-0 renal, 21.7 µM.
`COC1=C(OC)C(=O)C(C/C=C/c2c(Cl)nc3sccn23)=C(C)C1=O`: the TGI was 21 µM in the assay on SF-295 CNS; 54.6 µM in the assay on HS 578T breast; more than 100 µM in the assay with HCT-15 colon; 28.8 µM in the assay with BT-549 breast; 29.9 µM in the assay with OVCAR-3 ovarian; 25.1 µM with EKVX NSCLC. Further, the TGI amounted to 52.8 µM with MCF7 breast; 68.3 µM in the assay with K-562 leukemia; 29.1 µM in the assay with UACC-62 melanoma; 25.6 µM in the assay on U251 CNS; 31.7 µM in the assay with SN12C renal; 7.76 µM in the assay with NCI-H23 lung. This compound came in with a TGI with 786-0 renal of 49.2 µM.
Take `CCOC(=O)CN1C(=O)c2c(NC(=O)C(=O)O)cccc2S1(=O)=O`: the TGI in the assay with SF-295 CNS, in the assay with HL-60(TB) leukemia, in the assay on HS 578T breast, in the assay on HCT-15 colon, in the assay with BT-549 breast and in the assay with NCI-H226 lung was more than 100 µM each time. Further, the TGI with EKVX NSCLC, in the assay with MCF7 breast, in the assay with K-562 leukemia, in the assay with UACC-62 melanoma, in the assay with U251 CNS and in the assay with SN12C renal was more than 100 µM in each case. Moreover, the TGI with NCI-H23 lung and in the assay with 786-0 renal was more than 100 µM throughout.
Turning to `CCOC(=O)c1cc(C2CCN(Cc3ccccc3)C2=O)c(C(=O)/C=C(/C)N)[nH]1` (stereo unspecified), the TGI in the assay with SF-295 CNS, with HS 578T breast, in the assay with HCT-15 colon, in the assay with BT-549 breast, in the assay with OVCAR-3 ovarian and in the assay on EKVX NSCLC was more than 100 µM each time. For the same compound, the TGI in the assay with MCF7 breast, in the assay with K-562 leukemia, in the assay with UACC-62 melanoma, in the assay on U251 CNS, in the assay on NCI-H23 lung and in the assay on 786-0 renal was more than 100 µM each time.
Turning to `Cc1nnc(N)nc1C/C=C/C(C)Sc1ccc(Cl)cc1` (stereo unspecified), the TGI in the assay on SF-295 CNS was 11.8 µM; in the assay on HL-60(TB) leukemia, 10.1 µM; in the assay on HS 578T breast, more than 75.9 µM; with HCT-15 colon, more than 54.1 µM; in the assay with BT-549 breast, more than 67.2 µM; in the assay on NCI-H226 lung it was 7.69 µM. Besides, the TGI is 23.3 µM in the assay on EKVX NSCLC; 33.2 µM in the assay with MCF7 breast; more than 100 µM with K-562 leukemia; 17.8 µM in the assay with UACC-62 melanoma; more than 42 µM in the assay on U251 CNS; more than 80.6 µM in the assay on SN12C renal. The TGI is 36 µM in the assay with NCI-H23 lung and 33.1 µM with 786-0 renal.
Regarding `O=c1[nH]nc(-c2ccccc2)n1-n1cccc1`, the TGI in the assay with SF-295 CNS, in the assay with HS 578T breast, in the assay on HCT-15 colon, in the assay with BT-549 breast, with OVCAR-3 ovarian and in the assay on NCI-H226 lung was more than 100 µM in each case. Moreover, the TGI in the assay on EKVX NSCLC, with MCF7 breast, in the assay on K-562 leukemia, in the assay with UACC-62 melanoma, with U251 CNS and in the assay with SN12C renal was more than 100 µM in each case. This compound came in with a TGI with 786-0 renal of more than 100 µM.
For `CC(C)(CN1CCCCC1)C(=O)CC(SCCS(=O)(=O)O)c1ccccc1` (stereo unspecified), the TGI in the assay on SF-295 CNS worked out at 26.5 µM; with HS 578T breast it was 90.1 µM; in the assay on HCT-15 colon, 42.9 µM; with BT-549 breast it was 49.4 µM; with OVCAR-3 ovarian, 29.8 µM; in the assay with NCI-H226 lung it was 62 µM. The TGI in the assay with EKVX NSCLC was determined as 50.5 µM; with MCF7 breast, 33.4 µM; in the assay with K-562 leukemia, 29.6 µM; in the assay on UACC-62 melanoma it was 29.5 µM; with U251 CNS, 53.2 µM; in the assay on SN12C renal, 58.6 µM. Also, in the assay on 786-0 renal, the TGI came out at 25.4 µM.
As for `CCCCCCC(O)C(=O)OC1C2C(CC1(C)C)C(O)C13OC1C(O)C1(CO1)[C@@]23C` (stereo partly specified), the TGI is more than 100 µM in the assay on SF-295 CNS; more than 100 µM with HL-60(TB) leukemia; 79.3 µM in the assay with HS 578T breast; more than 100 µM in the assay with HCT-15 colon; more than 100 µM with BT-549 breast; more than 100 µM in the assay on OVCAR-3 ovarian. The TGI in the assay on EKVX NSCLC, with MCF7 breast, in the assay on K-562 leukemia, with UACC-62 melanoma, in the assay with U251 CNS and with SN12C renal was more than 100 µM each time. In addition, the TGI in the assay on NCI-H23 lung was more than 100 µM; in the assay with 786-0 renal it was 86.8 µM.

Source of the values: PubChem BioAssay (NCI).
